Tests used:
AAT-induced hearing loss [1] = assay: Chinchilla AAT model, oral treatment, ABR threshold shift; assay type: in vivo, chinchilla laniger
Method: The treatments were administered a total of five times including one dose 4 hours post-AAT, and two doses daily on days 1 and 2 post AAT.
Hearing was assessed as auditory brainstem response (ABR) which was measured at between 1 and 3 days prior to AAT and at one or more of the following time points post AAT: 1 hr, 8 hr, 24 hr 7 day and 21 days. The 21 day test point was considered the permanent threshold shift (PTS). ABR recordings were performed under light ketamine (20 mg/kg) and xylazine (1 mg/kg) anesthesia. Small supplemental doses (⅓ of initial dose) were given if needed. ABR thresholds were recorded from subcutaneous needle electrodes placed under the skin of the head. […] Auditory stimuli was generated using a computer-aided system (Intelligent Hearing Systems, Miami, Fla.) coupled to high frequency transducers. Acoustic stimuli were tone pips (5 ms duration and 1 ms Blackman rise and fall) at frequencies of 0.5, 1, 2, 4, 6, 8, and 16 kHz. All acoustic stimuli were transduced through the computer-controlled attenuator to a 3A insert earphone [Etyniotic Research (ER)-3A, Etymotic Research Inc., Elk Grove Village, Ill.] placed about 5 mm from the tympanic membrane. The insert earphone was calibrated with a coupler mounted to the sound level meter approximating its placement. The electrical responses obtained from the electrodes were amplified (×100,000), filtered (100-3,000 Hz), and digitized through an A/D converter on a signal processing board. They were averaged at a sample rate of 1024 for each level.
Hearing thresholds were tested in 10 dB descending steps until near the threshold, and then 5 dB ascending steps were taken to determine the threshold. Threshold was defined as the midpoint between the lowest level of a clear response and the next level where no response was observed. The threshold shift refers to the difference in threshold prior to and following AAT. The investigators performing the ABR measurements were blinded as to the identity of the animal groups.
Statistically significant differences in threshold shifts were tested via ANOVA (SPSS 14.0 for Windows).

AAT-induced hearing loss [2] = assay: Chinchilla AAT model, NAC intraperitoneal, ABR threshold shift; assay type: in vivo; details: FIG. 3; for threshold shift at 21 days following AAT exposure: p<0.05
Method: For the experiments and examples described herein, the following methods were generally employed except for those described with respect to FIG. 5. Female adult chinchilla laniger (Mouton Chinchilla Ranch, Rochester, Minn.) weighing 500-850 grams were placed, two at a time, in two small wire restraint cages on a wooden plate where the AAT was induced by a 105 dB SPL octave-band noise centered at 4 kHz for 6 hours in a sound isolation booth [Industrial Acoustics Company (IAC), New York, N.Y.]. The noise was digitally generated by a Tucker Davis Technologies (TDT, Alachua, Fla.) device and passed through a real time attenuator (TDT, RP2), filtered, amplified with a preamplifier (QSC audio power, Costa Mesa, Calif.), and transduced with a high frequency acoustic driver and an acoustic speaker (JBL 2350, Northridge, Calif.) suspended from the ceiling of the sound booth which is placed directly above the wire cages. Before noise exposure, the sound spectrum output of the system was calibrated with a sound level meter centered at an octave bandwidth of 4 kHz. A condenser microphone (B&K 2804, Norcross, Ga.) coupled to the preamplifier was placed between the two wire cages at the level of the animals' heads to monitor the noise level. During noise exposure, the noise level was continually and visually monitored using the PULSE software system [B&K Sound & Vibration Measurement (version 10.0), Norcross, Ga.] including FFT Analysis Type 7770 and CPB Analysis 7771. […]
Hearing was assessed as auditory brainstem response (ABR) which was measured at between 1 and 3 days prior to AAT and at one or more of the following time points post AAT: 1 hr, 8 hr, 24 hr 7 day and 21 days. […] ABR thresholds were recorded from subcutaneous needle electrodes placed under the skin of the head. […]

CC(C)(C)[N+]([O-])=Cc1ccc(S(=O)(=O)O)cc1S(=O)(=O)O [HPN-07, 2,4-disulfonyl α-phenyl tertiary butyl nitrone]
average threshold shift at each individual frequency (0.5, 1, 2, 4, 6 and 8 kHz) (AAT-induced hearing loss [1]; 300 mg/kg oral, compared to control, FIG. 2): most pronounced effect of HPN-07 occurred at 0.5, 1, 6 and 8 kHz, while the effect was less prominent at 2 and 4 kHz | average threshold shift across all frequencies tested (AAT-induced hearing loss [1]; 21 days post AAT, 300 mg/kg oral, five doses from 4 hours post-AAT, compared to control animals, FIG. 1): significantly decreased average threshold shift | average threshold shift for each individual frequency tested (AAT-induced hearing loss [1]; 21 days post AAT, oral, 300 mg/kg HPN-07 alone or + 300 mg/kg NAC, vs control (10% sucrose), FIG. 4A): significant reduction in threshold shift at 0.5, 1, 4 and 6 kHz | combined average threshold shift from 2 kHz to 8 kHz (AAT-induced hearing loss [1]; 21 days post AAT, oral, vs control, FIG. 4B): overall significant reduction in threshold shift | outer hair cell loss (AAT-induced hearing loss [1]; expected in view of ABR data, compared to the control group): statistically significant reduction in outer hair cell loss | protection from hearing loss due to AAT (AAT-induced hearing loss [1]; oral administration to chinchillas exposed to AAT, summary statement): significantly protected them from hearing loss

CC(=O)N[C@@H](CS)C(=O)O [NAC, N-acetylcysteine]
threshold shift at 21 days following AAT exposure (AAT-induced hearing loss [2]; 100 mg/kg NAC i.p.): significant decrease in threshold shift | threshold shift at 21 days following AAT exposure (AAT-induced hearing loss [2]; 200 mg/kg NAC i.p.): significant decrease in threshold shift | threshold shift soon after treatment (AAT-induced hearing loss [2]; NAC i.p. 4 hours post AAT): mild effect on threshold shift

— patent publication US10555915B2, “Methods for treating acute acoustic trauma” (Hough Ear Institute, priority 2009, dated 2020)
